# Source: ChEMBL document CHEMBL1201861, “Genomics of Drug Sensitity in Cancer screening data, Wellcome Trust Sanger Institute”
# Test system: Lu-65;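 further: growth inhibition of Lu-65 cancer cells, read out by a cell viability assay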
# Assay: cells
# Assay type: functional, cell-based, Homo sapiens
# Settings: Homo sapiens, Lu-65
# Description: SANGER: Inhibition of human LU-65 cell growth in a cell viability assay.
row,SMILES,IC50 [µM]
1,CCN(CC)CCCCNc1ncc2cc(-c3cc(OC)cc(OC)c3)c(NC(=O)NC(C)(C)C)nc2n1 [PD-173074],> 2

# Test system: BXPC-3;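 further: growth inhibition of human BxPC-3 cells, read out by a cell viability assay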
# Assay: cells
# Assay type: functional, cell-based, Homo sapiens
# Settings: Homo sapiens, BXPC-3
# Description: SANGER: Inhibition of human BxPC-3 cell growth in a cell viability assay.
row,SMILES,IC50 [µM]
1,CCN(CC)CCCCNc1ncc2cc(-c3cc(OC)cc(OC)c3)c(NC(=O)NC(C)(C)C)nc2n1 [PD-173074],> 2

# Test system: SBC-1;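 further: cell viability assay measuring growth inhibition of the SBC-1 cell line, IC50 being the concentration that halves growth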
# Assay: cells
# Assay type: functional, cell-based, Homo sapiens
# Settings: Homo sapiens, SBC-1
# Description: SANGER: Inhibition of human SBC-1 cell growth in a cell viability assay.
row,SMILES,IC50 [µM]
1,CCN(CC)CCCCNc1ncc2cc(-c3cc(OC)cc(OC)c3)c(NC(=O)NC(C)(C)C)nc2n1 [PD-173074],> 2

# Test system: 8505C
# Assay: cells
# Assay type: functional, cell-based, Homo sapiens
# Settings: Homo sapiens, 8505C
# Description: SANGER: Inhibition of human 8505C cell growth in a cell viability assay.
row,SMILES,IC50 [µM]
1,CCN(CC)CCCCNc1ncc2cc(-c3cc(OC)cc(OC)c3)c(NC(=O)NC(C)(C)C)nc2n1 [PD-173074],> 2

# Test system: KY821;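 further: growth inhibition of human KY821 cells, read out by a cell viability assay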
# Assay: cells
# Assay type: functional, cell-based, Homo sapiens
# Settings: Homo sapiens, KY821
# Description: SANGER: Inhibition of human KY821 cell growth in a cell viability assay.
row,SMILES,IC50 [µM]
1,CCN(CC)CCCCNc1ncc2cc(-c3cc(OC)cc(OC)c3)c(NC(=O)NC(C)(C)C)nc2n1 [PD-173074],> 2

# Test system: MKN-45;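 further: growth inhibition of human MKN-45 cells, measured with a cell viability assay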
# Assay: cells
# Assay type: functional, cell-based, Homo sapiens
# Settings: Homo sapiens, MKN-45
# Description: SANGER: Inhibition of human MKN45 cell growth in a cell viability assay.
row,SMILES,IC50 [µM]
1,CCN(CC)CCCCNc1ncc2cc(-c3cc(OC)cc(OC)c3)c(NC(=O)NC(C)(C)C)nc2n1 [PD-173074],> 2

# Test system: LN-405
# Assay: cells
# Assay type: functional, cell-based, Homo sapiens
# Settings: Homo sapiens, LN-405
# Description: SANGER: Inhibition of human LN-405 cell growth in a cell viability assay.
row,SMILES,IC50 [µM]
1,CCN(CC)CCCCNc1ncc2cc(-c3cc(OC)cc(OC)c3)c(NC(=O)NC(C)(C)C)nc2n1 [PD-173074],> 2

# Test system: KU812 cell line;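 further: growth inhibition of KU812 cells, read out with a cell viability assay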
# Assay: cells
# Assay type: functional, cell-based, Homo sapiens
# Settings: Homo sapiens, KU812
# Description: SANGER: Inhibition of human KU812 cell growth in a cell viability assay.
row,SMILES,IC50 [µM]
1,CCN(CC)CCCCNc1ncc2cc(-c3cc(OC)cc(OC)c3)c(NC(=O)NC(C)(C)C)nc2n1 [PD-173074],> 2

# Test system: CAL-33;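 further: growth inhibition of CAL-33 cells, read out with a cell viability assay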
# Assay: cells
# Assay type: functional, cell-based, Homo sapiens
# Settings: Homo sapiens, CAL-33
# Description: SANGER: Inhibition of human CAL-33 cell growth in a cell viability assay.
row,SMILES,IC50 [µM]
1,CCN(CC)CCCCNc1ncc2cc(-c3cc(OC)cc(OC)c3)c(NC(=O)NC(C)(C)C)nc2n1 [PD-173074],> 2

# Test system: OCI-AML2;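 further: growth inhibition of OCI-AML2 cells, read out with a cell viability assay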
# Assay: cells
# Assay type: functional, cell-based, Homo sapiens
# Settings: Homo sapiens, OCI-AML2
# Description: SANGER: Inhibition of human OCI-AML2 cell growth in a cell viability assay.
row,SMILES,IC50 [µM]
1,CCN(CC)CCCCNc1ncc2cc(-c3cc(OC)cc(OC)c3)c(NC(=O)NC(C)(C)C)nc2n1 [PD-173074],> 2

# Test system: FTC-133
# Assay: cells
# Assay type: functional, cell-based, Homo sapiens
# Settings: Homo sapiens, FTC-133
row,SMILES,IC50 [µM]
1,CCN(CC)CCCCNc1ncc2cc(-c3cc(OC)cc(OC)c3)c(NC(=O)NC(C)(C)C)nc2n1 [PD-173074],> 2

# Test system: ASPC1;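 further: growth inhibition of AsPC-1 cells, read out with a cell viability assay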
# Assay: cells
# Assay type: functional, cell-based, Homo sapiens
# Settings: Homo sapiens, ASPC1
# Description: SANGER: Inhibition of human AsPC-1 cell growth in a cell viability assay.
row,SMILES,IC50 [µM]
1,CCN(CC)CCCCNc1ncc2cc(-c3cc(OC)cc(OC)c3)c(NC(=O)NC(C)(C)C)nc2n1 [PD-173074],> 2

# Test system: HO-1-N-1;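 further: growth inhibition of human HO-1-N-1 cells, read out with a cell viability assay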
# Assay: cells
# Assay type: functional, cell-based, Homo sapiens
# Settings: Homo sapiens, HO-1-N-1
# Description: SANGER: Inhibition of human HO-1-N-1 cell growth in a cell viability assay.
row,SMILES,IC50 [µM]
1,CCN(CC)CCCCNc1ncc2cc(-c3cc(OC)cc(OC)c3)c(NC(=O)NC(C)(C)C)nc2n1 [PD-173074],> 2

# Test system: PC-14;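 further: cell viability assay measuring inhibition of PC-14 cell growth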
# Assay: cells
# Assay type: functional, cell-based, Homo sapiens
# Settings: Homo sapiens, PC-14
# Description: SANGER: Inhibition of human PC-14 cell growth in a cell viability assay.
row,SMILES,IC50 [µM]
1,CCN(CC)CCCCNc1ncc2cc(-c3cc(OC)cc(OC)c3)c(NC(=O)NC(C)(C)C)nc2n1 [PD-173074],> 2

# Test system: GI-ME-N;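 further: growth inhibition of human GI-ME-N cells, read out with a cell viability assay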
# Assay: cells
# Assay type: functional, cell-based, Homo sapiens
# Settings: Homo sapiens, GI-ME-N
# Description: SANGER: Inhibition of human GI-ME-N cell growth in a cell viability assay.
row,SMILES,IC50 [µM]
1,CCN(CC)CCCCNc1ncc2cc(-c3cc(OC)cc(OC)c3)c(NC(=O)NC(C)(C)C)nc2n1 [PD-173074],> 2

# Test system: NCI-H2087;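 further: growth inhibition determined with a cell viability readout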
# Assay: cells
# Assay type: functional, cell-based, Homo sapiens
# Settings: Homo sapiens, NCI-H2087
# Description: SANGER: Inhibition of human NCI-H2087 cell growth in a cell viability assay.
row,SMILES,IC50 [µM]
1,CCN(CC)CCCCNc1ncc2cc(-c3cc(OC)cc(OC)c3)c(NC(=O)NC(C)(C)C)nc2n1 [PD-173074],> 2

# Test system: T98G;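 further: growth inhibition of T98G cells, read out by a cell viability assay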
# Assay: cells
# Assay type: functional, cell-based, Homo sapiens
# Settings: Homo sapiens, T98G
# Description: SANGER: Inhibition of human T98G cell growth in a cell viability assay.
row,SMILES,IC50 [µM]
1,CCN(CC)CCCCNc1ncc2cc(-c3cc(OC)cc(OC)c3)c(NC(=O)NC(C)(C)C)nc2n1 [PD-173074],> 2

# Test system: NCI-H1581;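 further: cell growth inhibition read out by a viability assay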
# Assay: cells
# Assay type: functional, cell-based, Homo sapiens
# Settings: Homo sapiens, NCI-H1581
# Description: SANGER: Inhibition of human NCI-H1581 cell growth in a cell viability assay.
row,SMILES,IC50 [µM]
1,CCN(CC)CCCCNc1ncc2cc(-c3cc(OC)cc(OC)c3)c(NC(=O)NC(C)(C)C)nc2n1 [PD-173074],0.0123

# Test system: CTB-1
# Assay: cells
# Assay type: functional, cell-based, Homo sapiens
# Settings: Homo sapiens, CTB-1
# Description: SANGER: Inhibition of human CTB-1 cell growth in a cell viability assay.
row,SMILES,IC50 [µM]
1,CCN(CC)CCCCNc1ncc2cc(-c3cc(OC)cc(OC)c3)c(NC(=O)NC(C)(C)C)nc2n1 [PD-173074],> 2

# Test system: NB13;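 further: cell viability readout measuring growth inhibition of human NB13 cells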
# Assay: cells
# Assay type: functional, cell-based, Homo sapiens
# Settings: Homo sapiens, NB13
# Description: SANGER: Inhibition of human NB13 cell growth in a cell viability assay.
row,SMILES,IC50 [µM]
1,CCN(CC)CCCCNc1ncc2cc(-c3cc(OC)cc(OC)c3)c(NC(=O)NC(C)(C)C)nc2n1 [PD-173074],> 2

# Test system: MZ2-MEL;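 further: growth inhibition of MZ2-MEL cells read out with a cell viability assay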
# Assay: cells
# Assay type: functional, cell-based, Homo sapiens
# Settings: Homo sapiens, MZ2-MEL
# Description: SANGER: Inhibition of human MZ2-MEL cell growth in a cell viability assay.
row,SMILES,IC50 [µM]
1,CCN(CC)CCCCNc1ncc2cc(-c3cc(OC)cc(OC)c3)c(NC(=O)NC(C)(C)C)nc2n1 [PD-173074],> 2

# Test system: D-336MG
# Assay: cells
# Assay type: functional, cell-based, Homo sapiens
# Settings: Homo sapiens, D-336MG
# Description: SANGER: Inhibition of human D-336MG cell growth in a cell viability assay.
row,SMILES,IC50 [µM]
1,CCN(CC)CCCCNc1ncc2cc(-c3cc(OC)cc(OC)c3)c(NC(=O)NC(C)(C)C)nc2n1 [PD-173074],> 2

# Test system: NCI-H1437;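 further: growth inhibition of human NCI-H1437 cells, read out by a cell viability assay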
# Assay: cells
# Assay type: functional, cell-based, Homo sapiens
# Settings: Homo sapiens, NCI-H1437
# Description: SANGER: Inhibition of human NCI-H1437 cell growth in a cell viability assay.
row,SMILES,IC50 [µM]
1,CCN(CC)CCCCNc1ncc2cc(-c3cc(OC)cc(OC)c3)c(NC(=O)NC(C)(C)C)nc2n1 [PD-173074],> 2

# Test system: MDA-MB-453
# Assay: cells
# Assay type: functional, cell-based, Homo sapiens
# Settings: Homo sapiens, MDA-MB-453
# Description: SANGER: Inhibition of human MDA-MB-453 cell growth in a cell viability assay.
row,SMILES,IC50 [µM]
1,CCN(CC)CCCCNc1ncc2cc(-c3cc(OC)cc(OC)c3)c(NC(=O)NC(C)(C)C)nc2n1 [PD-173074],> 2

# Test system: UMUC3;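 further: growth inhibition of human UM-UC-3 cells, read out with a cell viability assay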
# Assay: cells
# Assay type: functional, cell-based, Homo sapiens
# Settings: Homo sapiens, UMUC3
# Description: SANGER: Inhibition of human UM-UC-3 cell growth in a cell viability assay.
row,SMILES,IC50 [µM]
1,CCN(CC)CCCCNc1ncc2cc(-c3cc(OC)cc(OC)c3)c(NC(=O)NC(C)(C)C)nc2n1 [PD-173074],> 2

# Test system: Huh-7;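 further: HuH-7 cell growth inhibition, read out with a cell viability assay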
# Assay: cells
# Assay type: functional, cell-based, Homo sapiens
# Settings: Homo sapiens, Huh-7
# Description: SANGER: Inhibition of human HuH-7 cell growth in a cell viability assay.
row,SMILES,IC50 [µM]
1,CCN(CC)CCCCNc1ncc2cc(-c3cc(OC)cc(OC)c3)c(NC(=O)NC(C)(C)C)nc2n1 [PD-173074],1.24

# Test system: D-392MG
# Assay: cells
# Assay type: functional, cell-based, Homo sapiens
# Settings: Homo sapiens, D-392MG
row,SMILES,IC50 [µM]
1,CCN(CC)CCCCNc1ncc2cc(-c3cc(OC)cc(OC)c3)c(NC(=O)NC(C)(C)C)nc2n1 [PD-173074],> 2

# Test system: SKG-IIIa;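 further: cell growth inhibition, read out with a cell viability assay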
# Assay: cells
# Assay type: functional, cell-based, Homo sapiens
# Settings: Homo sapiens, SKG-IIIa
# Description: SANGER: Inhibition of human SKG-IIIa cell growth in a cell viability assay.
row,SMILES,IC50 [µM]
1,CCN(CC)CCCCNc1ncc2cc(-c3cc(OC)cc(OC)c3)c(NC(=O)NC(C)(C)C)nc2n1 [PD-173074],> 2

# Test system: KARPAS-299
# Assay: cells
# Assay type: functional, cell-based, Homo sapiens
# Settings: Homo sapiens, KARPAS-299
# Description: SANGER: Inhibition of human KARPAS-299 cell growth in a cell viability assay.
row,SMILES,IC50 [µM]
1,CCN(CC)CCCCNc1ncc2cc(-c3cc(OC)cc(OC)c3)c(NC(=O)NC(C)(C)C)nc2n1 [PD-173074],> 2

# Test system: A 172;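 further: growth inhibition of A172 cells, measured with a cell viability readout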
# Assay: cells
# Assay type: functional, cell-based, Homo sapiens
# Settings: Homo sapiens, A 172
# Description: SANGER: Inhibition of human A172 cell growth in a cell viability assay.
row,SMILES,IC50 [µM]
1,CCN(CC)CCCCNc1ncc2cc(-c3cc(OC)cc(OC)c3)c(NC(=O)NC(C)(C)C)nc2n1 [PD-173074],1.7

# Test system: CAPAN-1;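 further: growth suppression of CAPAN-1 cells, read out by a cell viability assay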
# Assay: cells
# Assay type: functional, cell-based, Homo sapiens
# Settings: Homo sapiens, CAPAN-1
# Description: SANGER: Inhibition of human CAPAN-1 cell growth in a cell viability assay.
row,SMILES,IC50 [µM]
1,CCN(CC)CCCCNc1ncc2cc(-c3cc(OC)cc(OC)c3)c(NC(=O)NC(C)(C)C)nc2n1 [PD-173074],> 2

# Test system: NCI-H1304;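 further: growth inhibition of the cancer cell line, measured in a cell viability assay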
# Assay: cells
# Assay type: functional, cell-based, Homo sapiens
# Settings: Homo sapiens, NCI-H1304
# Description: SANGER: Inhibition of human NCI-H1304 cell growth in a cell viability assay.
row,SMILES,IC50 [µM]
1,CCN(CC)CCCCNc1ncc2cc(-c3cc(OC)cc(OC)c3)c(NC(=O)NC(C)(C)C)nc2n1 [PD-173074],> 2

# Test system: TE-1;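 further: growth inhibition of the human TE-1 cell line, read out with a cell viability assay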
# Assay: cells
# Assay type: functional, cell-based, Homo sapiens
# Settings: Homo sapiens, TE-1
# Description: SANGER: Inhibition of human TE-1 cell growth in a cell viability assay.
row,SMILES,IC50 [µM]
1,CCN(CC)CCCCNc1ncc2cc(-c3cc(OC)cc(OC)c3)c(NC(=O)NC(C)(C)C)nc2n1 [PD-173074],> 2

# Test system: HCC1395;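 further: growth inhibition of HCC1395 cells, read out by a cell viability assay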
# Assay: cells
# Assay type: functional, cell-based, Homo sapiens
# Settings: Homo sapiens, HCC1395
# Description: SANGER: Inhibition of human HCC1395 cell growth in a cell viability assay.
row,SMILES,IC50 [µM]
1,CCN(CC)CCCCNc1ncc2cc(-c3cc(OC)cc(OC)c3)c(NC(=O)NC(C)(C)C)nc2n1 [PD-173074],> 2

# Test system: GAK;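 further: cell growth inhibition read out by a cell viability assay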
# Assay: cells
# Assay type: functional, cell-based, Homo sapiens
# Settings: Homo sapiens, GAK
# Description: SANGER: Inhibition of human GAK cell growth in a cell viability assay.
row,SMILES,IC50 [µM]
1,CCN(CC)CCCCNc1ncc2cc(-c3cc(OC)cc(OC)c3)c(NC(=O)NC(C)(C)C)nc2n1 [PD-173074],> 2

# Test system: NCI-H2347;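 further: growth inhibition of the cell line, read out with a cell viability assay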
# Assay: cells
# Assay type: functional, cell-based, Homo sapiens
# Settings: Homo sapiens, NCI-H2347
# Description: SANGER: Inhibition of human NCI-H2347 cell growth in a cell viability assay.
row,SMILES,IC50 [µM]
1,CCN(CC)CCCCNc1ncc2cc(-c3cc(OC)cc(OC)c3)c(NC(=O)NC(C)(C)C)nc2n1 [PD-173074],> 2

# Test system: NCI-H358;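 further: growth inhibition of NCI-H358 human cells, read out with a cell viability assay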
# Assay: cells
# Assay type: functional, cell-based, Homo sapiens
# Settings: Homo sapiens, NCI-H358
# Description: SANGER: Inhibition of human NCI-H358 cell growth in a cell viability assay.
row,SMILES,IC50 [µM]
1,CCN(CC)CCCCNc1ncc2cc(-c3cc(OC)cc(OC)c3)c(NC(=O)NC(C)(C)C)nc2n1 [PD-173074],> 2

# Test system: RPMI-2650
# Assay: cells
# Assay type: functional, cell-based, Homo sapiens
# Settings: Homo sapiens, RPMI-2650
# Description: SANGER: Inhibition of human RPMI-2650 cell growth in a cell viability assay.
row,SMILES,IC50 [µM]
1,CCN(CC)CCCCNc1ncc2cc(-c3cc(OC)cc(OC)c3)c(NC(=O)NC(C)(C)C)nc2n1 [PD-173074],> 2

# Test system: G-401
# Assay: cells
# Assay type: functional, cell-based, Homo sapiens
# Settings: Homo sapiens, G-401
# Description: SANGER: Inhibition of human G-401 cell growth in a cell viability assay.
row,SMILES,IC50 [µM]
1,CCN(CC)CCCCNc1ncc2cc(-c3cc(OC)cc(OC)c3)c(NC(=O)NC(C)(C)C)nc2n1 [PD-173074],> 2

# Test system: LOX IMVI
# Assay: cells
# Assay type: functional, cell-based, Homo sapiens
# Settings: Homo sapiens, LOX IMVI
# Description: SANGER: Inhibition of human LOXIMVI cell growth in a cell viability assay.
row,SMILES,IC50 [µM]
1,CCN(CC)CCCCNc1ncc2cc(-c3cc(OC)cc(OC)c3)c(NC(=O)NC(C)(C)C)nc2n1 [PD-173074],> 2
